Reference: PubChem BioAssay (NCI)
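Results reflect a 48-hour exposure of cells in 96-well plates to compound at five concentrations. Abbreviation: GI50, concentration required for 50% inhibition of growth. The concentration for full growth arrest is given as TGI.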

Columns and labels:
Experiment in all cases: DTP human tumour cell line panel, 48 h
SK-OV-3 ovarian = tested on: SK-OV-3 ovarian
MDA-MB-231 breast = tested on: MDA-MB-231 breast
HCT-116 colon = tested on: HCT-116 colon
NCI-H522 lung = tested on: NCI-H522 lung
OVCAR-5 ovarian = tested on: OVCAR-5 ovarian
HCT-15 colon = tested on: HCT-15 colon
SNB-75 CNS = tested on: SNB-75 CNS
UACC-62 melanoma = tested on: UACC-62 melanoma

Structure (SMILES)	GI50 (SK-OV-3 ovarian)	TGI (SK-OV-3 ovarian)	GI50 (MDA-MB-231 breast)	TGI (MDA-MB-231 breast)	GI50 (HCT-116 colon)	TGI (HCT-116 colon)	GI50 (NCI-H522 lung)	TGI (NCI-H522 lung)	GI50 (OVCAR-5 ovarian)	TGI (OVCAR-5 ovarian)	GI50 (HCT-15 colon)	TGI (HCT-15 colon)	GI50 (SNB-75 CNS)	TGI (SNB-75 CNS)	GI50 (UACC-62 melanoma)	TGI (UACC-62 melanoma)
COC(=O)C1=C(C)NC(C)=C(C(=O)OCC(C)C)C1c1ccccc1[N+](=O)[O-] (stereo not drawn)	4.65 µM	17.4 µM	4.04 µM	17.1 µM	3.02 µM	12.1 µM	2.4 µM	10.7 µM	7.52 µM	22.5 µM	3.88 µM	15.9 µM	2.44 µM	15.2 µM	2.28 µM	11.2 µM
COc1cc([N+](=O)[O-])c(OC)cc1-c1nc2sccn2c1/C=N/N=C(N)N	36.5 µM	94.8 µM	24.2 µM	69.5 µM	21.7 µM	94.4 µM	21 µM	> 100 µM	53.8 µM	> 100 µM	26.3 µM	72.4 µM	–	–	27.7 µM	70.5 µM
COc1cccc(-c2cc3c4c(nc5ccccc53)C(=O)c3cccnc3-c4n2)c1	8.57 µM	25.7 µM	4.61 µM	> 37.8 µM	1.3 µM	5.75 µM	0.429 µM	2.01 µM	3.05 µM	8.92 µM	1.52 µM	4.44 µM	2.32 µM	5.71 µM	3.88 µM	10.5 µM
NCCN.O=C([O-])CN1CCOCC1.[OH-].[Pt+4]	> 100 µM	> 100 µM	> 100 µM	> 100 µM	> 100 µM	> 100 µM	> 100 µM	> 100 µM	> 100 µM	> 100 µM	> 100 µM	> 100 µM	> 100 µM	> 100 µM	> 100 µM	> 100 µM
Cc1cn2c(/C=C3/C(=O)Nc4ccc(O)cc43)c(C)nc2s1	3.8 µM	> 28.8 µM	2.82 µM	> 62.4 µM	1.22 µM	> 45.5 µM	0.773 µM	> 29.3 µM	28.3 µM	> 100 µM	3.78 µM	> 58.5 µM	4.61 µM	> 100 µM	1.16 µM	11.4 µM
C=C1CC[C@@H]2[C@](C)(COC(C)=O)[C@H](OC(C)=O)CC[C@@]2(C)[C@@H]1CC(Nc1ccc(S(=O)(=O)Nc2ccc(Cl)nn2)cc1)C1=CCOC1=O (stereo partly drawn)	4.05 µM	12.3 µM	1.9 µM	3.96 µM	1.08 µM	2.32 µM	0.754 µM	2.1 µM	2.01 µM	4.16 µM	0.882 µM	2.3 µM	1.44 µM	5.9 µM	1.49 µM	3.86 µM
Cc1nn(C)c(COc2ccc(N3CCN(S(=O)(=O)N(C)C)CC3)cc2)c1-c1cccc2c(CCCOc3cccc4ccccc34)c(C(=O)O)n(CCN3CCOCC3)c12	2.64 µM	10.3 µM	2.26 µM	5.9 µM	3.08 µM	15 µM	3.11 µM	9.35 µM	3.96 µM	23.5 µM	7.62 µM	22.9 µM	2.11 µM	10.5 µM	–	–
N#Cc1nc2c(S(=O)(=O)c3ccc(Cl)cc3)c(N)n(CCCN3CCOCC3)c2nc1C#N	27.1 µM	> 100 µM	3.58 µM	14.4 µM	3.11 µM	13.6 µM	–	–	20.8 µM	54.9 µM	4.32 µM	27.1 µM	11.1 µM	48.3 µM	10.8 µM	31.1 µM
O=S(=O)(c1cccc2c(I)cccc12)N1CCCNCC1	20.2 µM	37.6 µM	19.5 µM	36.7 µM	15.4 µM	32.6 µM	14.8 µM	30.3 µM	16 µM	33.5 µM	17.9 µM	34.7 µM	–	–	19.9 µM	37.3 µM
COc1cnc2c(c1)C(=O)c1c-2n(CCCNC2=NCCS2)c(=O)c2cc(Cl)ccc12	0.316 µM	1.64 µM	1.52 µM	3.07 µM	0.352 µM	2.19 µM	–	–	1.82 µM	3.45 µM	1.26 µM	2.67 µM	1.23 µM	2.51 µM	0.0953 µM	1.94 µM
CCc1ccc2c(c1)C(=O)c1c-2n(CCCN=[N+]=[N-])c(=O)c2cc(OC)c(OC)cc12	> 100 µM	> 100 µM	> 100 µM	> 100 µM	–	–	49 µM	> 100 µM	> 100 µM	> 100 µM	> 100 µM	> 100 µM	> 100 µM	> 100 µM	91.9 µM	> 100 µM
Cc1[nH]c2ccc(F)cc2c1-c1nc2c3cccnc3c3ncccc3c2[nH]1	0.35 µM	> 100 µM	0.277 µM	> 100 µM	0.263 µM	> 100 µM	–	–	0.397 µM	> 100 µM	0.387 µM	> 100 µM	0.422 µM	> 100 µM	0.231 µM	0.678 µM
CCN1C(=O)N(CC)C2C1NN=c1s/c(=C\c3ccccn3)c(=O)n12 (stereo not drawn)	3.92 µM	> 100 µM	4.05 µM	> 100 µM	0.825 µM	> 100 µM	0.69 µM	10.2 µM	4.61 µM	> 100 µM	0.558 µM	> 100 µM	–	–	0.833 µM	> 100 µM
Cc1nn(-c2ccc([N+](=O)[O-])cc2)c2ncnc(N/N=C/c3ccccc3O)c12	0.497 µM	> 22.1 µM	0.482 µM	3.97 µM	–	–	0.365 µM	7.56 µM	2.04 µM	> 100 µM	–	–	0.554 µM	4.23 µM	0.986 µM	3.76 µM
CN1CCc2[nH]nc(-c3n[nH]c4c3CN(C)CC4)c2C1	–	> 100 µM	–	> 100 µM	–	> 100 µM	–	> 100 µM	–	> 100 µM	–	> 100 µM	–	–	–	> 100 µM
Cn1cc(-c2csc(-c3cn(CCCN4CCCCC4)c4ccccc34)n2)c2cccnc21	19.3 µM	42.7 µM	1.77 µM	3.32 µM	–	–	17.8 µM	41 µM	1.63 µM	3.13 µM	1.7 µM	3.2 µM	–	–	1.87 µM	3.46 µM
Oc1c(Cl)c(Cl)c(O)c2c1CCCC2	–	27.2 µM	–	41.9 µM	–	2.83 µM	–	–	–	–	–	29.7 µM	–	–	–	27 µM
